From EP4707280A1, “1,4-CINEOLE DERIVATIVE AND INTERMEDIATE THEREOF, HERBICIDE CONTAINING SAID DERIVATIVE AS ACTIVE INGREDIENT, METHOD FOR USING HERBICIDE, AND METHOD FOR PREPARING AGROCHEMICAL COMPOSITION” (HOKKO CHEMICAL INDUSTRY CO., LTD., priority 2023, dated 2024)

Columns and labels:
Type in all cases: in vivo
[1] = test system: Scirpus juncoides; test: Test Example 2: herbicidal effect test by application during growth period of paddy rice; conditions: Schoenoplectiella juncoides; 120 g per 10 ares; applied seven days after sowing, flooded pots; 14 days after application; read-out: weed inhibition rate
How it was run: (§1)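 Paddy soil in Wagner pots was puddled with N:P:K 16:16:16 fertilizer, sown with 30 weed seeds per species at 0–1 cm and flooded to about 3 cm. Seven days after sowing, a water-diluted emulsifiable concentrate was dropped onto the water at 120 g active ingredient per 10 ares. Weed inhibition (%) was scored at 14 days, in duplicate.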

[2] = test system: Echinochloa crus-galli var. formosensis; test: as above; conditions: Echinochloa crus-galli; 120 g per 10 ares; applied seven days after sowing, flooded pots; 14 days after application; read-out: weed inhibition rate
How it was run: as §1

[3] = test system: Echinochloa crus-galli; test: Test Example 4: herbicidal effect test by stem and leaf treatment in upland field; conditions: Echinochloa crus-galli; 120 g per 10 ares; sprayed seven days after sowing, upland soil; 14 days after application; read-out: weed inhibition rate
[4] = test system: Echinochloa crus-galli var. formosensis; test: Test Example 5: herbicidal effect test by soil application in paddy rice (low dose); conditions: Echinochloa crus-galli, soil, 336 h; 7.5 g per 10 ares; applied immediately after sowing, flooded pots; 14 days after application; read-out: weed inhibition rate
How it was run: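 Paddy soil in Wagner pots was fertilized (N:P:K 16:16:16), puddled, sown with 30 seeds per weed species at 0–1 cm, then flooded to ~3 cm in a glass greenhouse. Emulsifiable concentrate diluted in water was dropper-applied into floodwater immediately, at 7.5 g active ingredient per 10 ares; duplicates, scored at 14 days.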

[5] = test system: Echinochloa crus-galli; test: Test Example 3: herbicidal effect test by soil application in upland field; conditions: Echinochloa crus-galli, 120 g per 10 ares, sprayed one day after sowing, 14 days after application, read-out: weed inhibition rate
How it was run: (§2)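 Weed inhibition (%) was assessed 14 days after treatment, in duplicate per concentration group. Seeds had been mixed into the upper 1 cm of upland alluvial loam, and the soil surface was sprayed one day later with the diluted emulsifiable concentrate at 120 g active ingredient per 10 ares.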

[6] = test system: Digitaria ciliaris; test: as above; conditions: Digitaria ciliaris, 120 g per 10 ares, sprayed one day after sowing, 14 days after application, read-out: weed inhibition rate
How it was run: as §2

[7] = test system: Scirpus juncoides; test: Test Example 1: herbicidal effect test by soil application in paddy rice; conditions: Schoenoplectiella juncoides, soil, 336 h; 120 g active ingredient per 10 ares; applied immediately after sowing, flooded pots; 14 days after application; read-out: weed inhibition rate
How it was run: (§3)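 Treatment: 120 g active ingredient per 10 ares as a water-diluted emulsifiable concentrate, dropped onto flooded pots immediately after sowing. Thirty seeds per species went 0–1 cm into puddled paddy soil with 16:16:16 fertilizer, with ~3 cm flooding maintained in a glass greenhouse.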

[8] = test system: Echinochloa crus-galli var. formosensis; test: as above; conditions: Echinochloa crus-galli, soil, 336 h; 120 g active ingredient per 10 ares; applied immediately after sowing, flooded pots; 14 days after application; read-out: weed inhibition rate
How it was run: as §3

[9] = test system: Echinochloa crus-galli; test: Test Example 8: herbicidal effect test by stem and leaf treatment in upland field (low dose); conditions: Echinochloa crus-galli; 7.5 g per 10 ares; sprayed seven days after sowing, upland soil; 14 days after application; read-out: weed inhibition rate
[10] = test system: Digitaria ciliaris; test: as above; conditions: Digitaria ciliaris; 7.5 g per 10 ares; sprayed seven days after sowing, upland soil; 14 days after application; read-out: weed inhibition rate
[11] = test system: Digitaria ciliaris; test: Test Example 4: herbicidal effect test by stem and leaf treatment in upland field; conditions: Digitaria ciliaris; 120 g per 10 ares; sprayed seven days after sowing, upland soil; 14 days after application; read-out: weed inhibition rate
[12] = test system: Echinochloa crus-galli; test: Test Example 7: herbicidal effect test by soil application in upland field (low dose); conditions: Echinochloa crus-galli, 7.5 g per 10 ares, sprayed one day after sowing, 14 days after application, read-out: weed inhibition rate
How it was run: (§4)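 Pre-emergence soil application: upland alluvial loam pots sown with weed seeds mixed into the top 1 cm; one day after sowing, a water-diluted emulsifiable concentrate was sprayed on the soil at 100 L per 10 a, delivering 7.5 g active ingredient per 10 a. Weed inhibition rate (%) scored 14 days after application, duplicate pots.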

[13] = test system: Digitaria ciliaris; test: as above; conditions: Digitaria ciliaris, 7.5 g per 10 ares, sprayed one day after sowing, 14 days after application, read-out: weed inhibition rate
How it was run: as §4

[14] = test system: Echinochloa crus-galli var. formosensis; test: Test Example 6: herbicidal effect test by application during growth period of paddy rice (low dose); conditions: Echinochloa crus-galli; 7.5 g per 10 ares; applied seven days after sowing, flooded pots; 14 days after application; read-out: weed inhibition rate
How it was run: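 Puddled, fertilised paddy soil was sown with 30 seeds per species and flooded to about 3 cm. After 7 days in a glass greenhouse, the diluted emulsifiable concentrate went into the water by dropper at 7.5 g/10 a. Effect scored at 14 days.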

CC(C)C12C=CC(C)(O1)C(OCc1ccccc1)C2 (stereo not shown) [3-752, 4-methyl-5-phenylmethoxy-1-isopropyl-7-oxabicyclo[2.2.1]hept-2-ene]
≥ 80%: inhibition at 1200 g/ha [1] | inhibition at 1200 g/ha [2] | inhibition at 1200 g/ha [3] | inhibition at 75 g/ha [4] | inhibition at 1200 g/ha [5] | inhibition at 1200 g/ha [6] | pest or weed control at 1200 g/ha [7] | pest or weed control at 1200 g/ha [8] | inhibition at 75 g/ha [9] | inhibition at 75 g/ha [10] | inhibition at 1200 g/ha [11] | inhibition at 75 g/ha [12] | inhibition at 75 g/ha [13] | inhibition at 75 g/ha [14]

CC(C)C12C=CC(C)(O1)C(OCc1ccccc1F)C2 (stereo not shown) [3-754, 5-[(2-fluorophenyl)methoxy]-4-methyl-1-isopropyl-7-oxabicyclo[2.2.1]hept-2-ene]
≥ 80%: inhibition at 1200 g/ha [1] | inhibition at 1200 g/ha [2] | inhibition at 1200 g/ha [3] | inhibition at 75 g/ha [4] | inhibition at 1200 g/ha [5] | inhibition at 1200 g/ha [6] | pest or weed control at 1200 g/ha [7] | pest or weed control at 1200 g/ha [8] | inhibition at 75 g/ha [9] | inhibition at 75 g/ha [10] | inhibition at 1200 g/ha [11] | inhibition at 75 g/ha [12] | inhibition at 75 g/ha [13] | inhibition at 75 g/ha [14]

CC(C)C12C=CC(C)(O1)C(OCc1ccccn1)C2 (stereo not shown) [3-755, 2-[(1-methyl-4-isopropyl-7-oxabicyclo[2.2.1]hept-5-en-2-yl)oxymethyl]pyridine]
≥ 80%: inhibition at 1200 g/ha [1] | inhibition at 1200 g/ha [2] | inhibition at 1200 g/ha [3] | inhibition at 75 g/ha [4] | inhibition at 1200 g/ha [5] | inhibition at 1200 g/ha [6] | pest or weed control at 1200 g/ha [7] | pest or weed control at 1200 g/ha [8] | inhibition at 75 g/ha [9] | inhibition at 75 g/ha [10] | inhibition at 1200 g/ha [11] | inhibition at 75 g/ha [12] | inhibition at 75 g/ha [13] | inhibition at 75 g/ha [14]

CC(C)C12C=CC(C)(O1)C(OCc1cccs1)C2 (stereo not shown) [3-756, 1-isopropyl-4-methyl-5-(2-thienylmethoxy)-7-oxabicyclo[2.2.1]hept-2-ene]
≥ 80%: inhibition at 1200 g/ha [1] | inhibition at 1200 g/ha [2] | inhibition at 1200 g/ha [3] | inhibition at 75 g/ha [4] | inhibition at 1200 g/ha [5] | inhibition at 1200 g/ha [6] | pest or weed control at 1200 g/ha [7] | pest or weed control at 1200 g/ha [8] | inhibition at 75 g/ha [9] | inhibition at 75 g/ha [10] | inhibition at 1200 g/ha [11] | inhibition at 75 g/ha [12] | inhibition at 75 g/ha [13] | inhibition at 75 g/ha [14]

CC(C)C12C=CC(C)(O1)C(OCc1ccsc1)C2 (stereo not shown) [3-757, 1-isopropyl-4-methyl-5-(3-thienylmethoxy)-7-oxabicyclo[2.2.1]hept-2-ene]
≥ 80%: inhibition at 1200 g/ha [1] | inhibition at 1200 g/ha [2] | inhibition at 1200 g/ha [3] | inhibition at 75 g/ha [4] | inhibition at 1200 g/ha [5] | inhibition at 1200 g/ha [6] | pest or weed control at 1200 g/ha [7] | pest or weed control at 1200 g/ha [8] | inhibition at 75 g/ha [9] | inhibition at 75 g/ha [10] | inhibition at 1200 g/ha [11] | inhibition at 75 g/ha [12] | inhibition at 75 g/ha [13] | inhibition at 75 g/ha [14]
